Laboratory results reported in the Kinase Knowledgebase extract (Sharma et al. 2016).

Legend:
MAPK14 [1] = molecular target: MAPK14 (UniProt Q16539); assay: CSBP binding - Inhibition of RBL-1 5 Lipoxygenase Enzyme Assay
MAPK14 [2] = molecular target: MAPK14 (UniProt Q16539); assay: CSBP binding - Inhibition of Prostaglandin H Synthase Type-1 Enzyme Assay
MAPK14 [3] = molecular target: MAPK14 (UniProt Q16539); assay: Inhibition of MAPK14 Kinase Activity
CDK2 [4] = molecular target: CDK2 (UniProt P24941); assay: Enzyme Assay
EGFR [5] = molecular target: EGFR (UniProt P00533)
Chain of EGFR (P00533 whole entry, looked up): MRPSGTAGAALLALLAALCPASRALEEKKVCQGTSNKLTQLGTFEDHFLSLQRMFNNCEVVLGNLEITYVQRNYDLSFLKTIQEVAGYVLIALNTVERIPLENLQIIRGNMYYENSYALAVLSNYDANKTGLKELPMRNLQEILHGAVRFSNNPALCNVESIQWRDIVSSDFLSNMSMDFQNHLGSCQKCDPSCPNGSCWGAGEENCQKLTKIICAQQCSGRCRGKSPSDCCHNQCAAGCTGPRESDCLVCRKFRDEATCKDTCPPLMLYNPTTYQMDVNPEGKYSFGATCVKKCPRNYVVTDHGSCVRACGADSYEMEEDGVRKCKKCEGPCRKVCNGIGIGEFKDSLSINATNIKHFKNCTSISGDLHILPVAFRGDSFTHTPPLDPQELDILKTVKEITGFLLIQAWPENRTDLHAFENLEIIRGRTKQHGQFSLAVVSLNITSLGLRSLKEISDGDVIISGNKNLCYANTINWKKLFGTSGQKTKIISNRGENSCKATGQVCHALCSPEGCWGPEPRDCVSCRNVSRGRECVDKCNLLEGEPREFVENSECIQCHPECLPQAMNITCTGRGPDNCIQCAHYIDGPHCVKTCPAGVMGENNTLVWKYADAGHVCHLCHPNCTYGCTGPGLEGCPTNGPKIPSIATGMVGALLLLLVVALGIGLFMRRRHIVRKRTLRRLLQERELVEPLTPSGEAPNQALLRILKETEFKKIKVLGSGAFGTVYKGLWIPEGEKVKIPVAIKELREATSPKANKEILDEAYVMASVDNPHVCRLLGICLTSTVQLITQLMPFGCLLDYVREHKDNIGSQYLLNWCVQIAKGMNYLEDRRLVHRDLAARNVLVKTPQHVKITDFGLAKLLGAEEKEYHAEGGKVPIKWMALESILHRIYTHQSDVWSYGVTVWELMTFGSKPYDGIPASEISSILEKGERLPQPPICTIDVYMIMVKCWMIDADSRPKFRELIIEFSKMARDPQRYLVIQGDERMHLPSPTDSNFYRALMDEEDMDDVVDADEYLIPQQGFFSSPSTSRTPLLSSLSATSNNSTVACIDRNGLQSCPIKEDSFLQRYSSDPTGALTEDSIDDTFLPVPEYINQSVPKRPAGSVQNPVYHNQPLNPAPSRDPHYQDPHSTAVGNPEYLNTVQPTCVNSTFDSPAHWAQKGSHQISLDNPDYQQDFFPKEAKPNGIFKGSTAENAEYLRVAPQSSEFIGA

EGFR (human) [6] = molecular target: EGFR (human) (UniProt P00533)
Chain of EGFR (human) (P00533 whole entry, looked up): as above

EGFR (human) [7] = molecular target: EGFR (human) (UniProt P00533); conditions: hn5
MAPK14 (human) [8] = molecular target: MAPK14 (human) (UniProt Q16539); assay: Inhibition of MAPK14 Kinase Activity
Chain of MAPK14 (human) (Q16539 whole entry, looked up): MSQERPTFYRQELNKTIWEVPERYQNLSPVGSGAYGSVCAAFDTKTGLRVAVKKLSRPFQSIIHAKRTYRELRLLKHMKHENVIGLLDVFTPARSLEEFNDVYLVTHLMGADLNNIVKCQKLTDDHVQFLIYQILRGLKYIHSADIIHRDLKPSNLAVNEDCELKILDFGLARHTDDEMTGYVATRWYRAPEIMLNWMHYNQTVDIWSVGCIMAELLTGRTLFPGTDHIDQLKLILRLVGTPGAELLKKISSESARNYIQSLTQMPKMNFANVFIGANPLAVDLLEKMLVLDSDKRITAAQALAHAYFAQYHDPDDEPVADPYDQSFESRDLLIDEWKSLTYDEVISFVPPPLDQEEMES

MAPK14 (human) [9] = molecular target: MAPK14 (human) (UniProt Q16539); assay: Inhibition of MAPK14 Kinase Activity; remark: listed apart in the source
CDK2 [10] = molecular target: CDK2 (UniProt P24941); assay: Enzyme Assay; remark: listed apart in the source
EGFR (human) [11] = molecular target: EGFR (human) (UniProt P00533); remark: listed apart in the source
EGFR [12] = molecular target: EGFR (UniProt P00533); conditions: concentration not given here
EGFR [13] = molecular target: EGFR (UniProt P00533); remark: listed apart in the source
EGFR [14] = molecular target: EGFR (UniProt P00533); remark: listed apart in the source
MAPK14 [15] = molecular target: MAPK14 (UniProt Q16539); assay: Inhibition of MAPK14 Kinase Activity (Binding Assay)
MAPK14 [16] = molecular target: MAPK14 (UniProt Q16539); assay: Inhibition of MAPK14 Kinase Activity (Spectrophometric Assay)
EGFR (human) [17] = molecular target: EGFR (human) (UniProt P00533); conditions: a431
EGFR (human) [18] = molecular target: EGFR (human) (UniProt P00533); conditions: kb
EGFR [19] = molecular target: EGFR (UniProt P00533); remark: listed apart in the source
EGFR (human) [20] = molecular target: EGFR (human) (UniProt P00533); remark: listed apart in the source
EGFR (human) [21] = molecular target: EGFR (human) (UniProt P00533); conditions: hn5; remark: listed apart in the source
EGFR (human) [22] = molecular target: EGFR (human) (UniProt P00533); conditions: a431; remark: listed apart in the source
EGFR (human) [23] = molecular target: EGFR (human) (UniProt P00533); conditions: kb; remark: listed apart in the source
EGFR (human) [24] = molecular target: EGFR (human) (UniProt P00533); remark: listed apart in the source
MAPK14 [25] = molecular target: MAPK14 (UniProt Q16539); assay: Inhibition of TNF-alpha Production

Chain of MAPK14 (Q16539 whole entry, looked up): as above

## Fc1ccc(-c2nc[nH]c2-c2ccncc2)cc1
MAPK14 [1]
  IC50: > 100 µM
MAPK14 [2]
  IC50: > 100 µM

## CCS(=O)(=O)c1ccc(OC)c(Nc2ncc(-c3cccc(-c4ccccn4)c3)o2)c1
MAPK14 [3]
  IC50: > 10 µM
CDK2 [4]
  IC50: 1.7 µM
EGFR [5]
  IC50: > 10 µM

## CS(=O)(=O)CCNCc1nc(-c2ccc3ncnc(Nc4ccc(OCc5cccc(F)c5)c(Cl)c4)c3c2)cs1
EGFR (human) [6]
  IC50: < 0.1 µM
EGFR (human) [7]
  IC50: 0.08 µM

## CONC(=O)c1ccc(C)c(Nc2nc(NCC3CCCC(CN)C3)nc(NC3CCCCC3)n2)c1 (centres undefined)
MAPK14 (human) [8]
  IC50: 0.002 µM
MAPK14 (human) [9]
  IC50: 0.002 µM

## CCS(=O)(=O)c1ccc(OC)c(Nc2ncc(-c3cccc(-c4ccccc4F)c3)o2)c1
MAPK14 [3]
  IC50: > 10 µM
EGFR [5]
  IC50: > 10 µM

## Clc1ccc(-c2ncn(CCCN3CCOCC3)c2-c2ccncc2)cc1Cl
MAPK14 [1]
  IC50: > 100 µM
MAPK14 [2]
  IC50: > 100 µM

## Cc1c(-c2ccnc(Nc3cccc(CCNS(C)(=O)=O)c3)n2)sc(=O)n1C
CDK2 [10]
  Ki: 0.042 µM
CDK2 [4]
  Ki: 0.039 µM

## COc1cc2c(cc1OC)Oc1ncnc(Oc3cccc(Br)c3)c1N(C)C2
EGFR (human) [11]
  IC50: 4.6 µM

## O=C1NCc2c1c1c3ccc(O)cc3[nH]c1c1[nH]c3ccccc3c21
EGFR [12]
  inhibition: 50 to 80%

## CS(=O)(=O)CCNCc1ccc(-c2ccc3ncnc(Nc4ccc(OCc5cccc(F)c5)c(Br)c4)c3c2)o1
EGFR (human) [6]
  IC50: < 0.1 µM

## CN1CCC(Oc2cccc3ncnc(Nc4ccc(OCc5ccccn5)c(Cl)c4)c23)CC1
EGFR [13]
  IC50: 0.11 µM

## O=C1NC(=O)c2c1c1c3ccccc3[nH]c1c1[nH]c3cc(O)c(O)cc3c21
EGFR [12]
  inhibition: 50 to 80%

## COc1ccc(C#CC(C)(C)N)cc1-c1n[nH]c2nc(Nc3ccc(F)cc3F)ccc12
EGFR [14]; concentration not given here
  inhibition: -43%

## CC12CC(C(=O)O)CC(C)(C1)C(=O)N(Cc1cccc(-n3nc(C(C)(C)C)cc3NC(=O)Nc3cccc4ccccc34)c1)C2=O (centres undefined)
MAPK14 [15]
  IC50: 2.15 µM
MAPK14 [16]
  IC50: 0.953 µM

## CONC(=O)c1ccc(C)c(Nc2nc(NCC3CCCC(CN)C3)nc(NC3CCCCC3C)n2)c1 (centres undefined)
MAPK14 (human) [8]
  IC50: 0.002 µM
MAPK14 (human) [9]
  IC50: 0.002 µM

## CC12CC(C(=O)O)CC(C)(C1)C(=O)N(Cc1cccc(-n3nc(C(C)(C)C)cc3NC(=O)Nc3ccc(Cl)cc3)c1)C2=O (centres undefined)
MAPK14 [15]
  IC50: 10 µM
MAPK14 [16]; concentration not given here
  inhibition: 70%

## N#Cc1cnc2ccc(NCc3c[nH]cn3)cc2c1Nc1ccc(F)c(Cl)c1
EGFR (human) [17]
  IC50: 0.03 µM

## COc1ccc(C#CC(C)(C)O)cc1-c1n[nH]c2nc(Nc3ccc(F)cc3F)ncc12
EGFR [14]
  IC50: 5.2 µM

## CNC(=O)C1(N(C)Cc2cc3c(Nc4cccc(Cl)c4F)ncnc3cc2OC)CCN(C)CC1
EGFR (human) [18]
  IC50: 0.036 µM

## COc1cc2c(NC3=CC(=O)C(OC(CF)CF)=CC3=O)ncnc2cc1OCC1CCN(C)CC1
EGFR [19]
  IC50: 1.8 to 117 µM

## Cn1ccnc1S(=O)(=O)CCNCc1ccc(-c2ccc3ncnc(Nc4ccc(OCc5cccc(F)c5)c(Cl)c4)c3c2)o1
EGFR (human) [20]
  IC50: 0.017 µM
EGFR (human) [21]
  IC50: 0.5 µM

## CN1CCC(Oc2cccc3ncnc(Nc4ccc(OCc5cscn5)c(Cl)c4)c23)CC1
EGFR [13]
  IC50: 0.28 µM

## COc1ccc(-c2[nH]nc3c2C(=O)c2c(NC(=O)Nc4ccc(O)cc4)cccc2-3)cc1
EGFR (human) [22]
  GI50: > 10 µM

## CNC(=O)CN1CCC(Oc2cc3c(Nc4ccc(F)c(Cl)c4F)ncnc3cc2OC)CC1
EGFR (human) [23]
  IC50: 0.009 µM

## N#Cc1cnc2cc3c(cc2c1Nc1ccc(F)c(Cl)c1)N(C(=O)/C=C/CCl)CCO3
EGFR (human) [24]
  IC50: 1 µM

## CN1CC2CCC1CC2Nc1cc2c(ccc(=O)n2-c2c(Cl)cccc2Cl)c(-c2ccccc2Cl)n1 (centres undefined)
MAPK14 [25]
  IC50: 0.024 µM
MAPK14 [3]
  IC50: 0.0004 µM

## CC(=O)NCc1ccc(Nc2nccc(-c3sc(=O)n(C)c3C)n2)cc1
CDK2 [10]
  Ki: 0.22 µM
CDK2 [4]
  Ki: 0.034 µM

## N#Cc1cnc2cnc(NCc3cccnc3)cc2c1NC1CCCCCC1
EGFR (human) [17]
  IC50: > 40 µM
MAPK14 (human) [9]
  IC50: > 40 µM

## COc1cc2ncnc(Nc3cccc(Cl)c3F)c2cc1OC1CCN(CC(=O)NCCN2CCCC2)CC1
EGFR (human) [23]
  IC50: 0.017 µM

## O=S(=O)(CCNCc1ccc(-c2ccc3ncnc(Nc4ccc(OCc5cccc(F)c5)c(Cl)c4)c3c2)o1)c1ccccn1
EGFR (human) [20]
  IC50: 0.019 µM
EGFR (human) [21]
  IC50: 1.55 µM

## Nc1ccc(NC(=O)Nc2cccc3c2C(=O)c2c-3n[nH]c2-c2ccc(O)cc2)cc1
EGFR (human) [22]
  GI50: > 10 µM

## COC1=CC(=O)C(Nc2ncnc3cc(OCC4CCN(C)CC4)c(OC)cc23)=CC1=O
EGFR [19]
  IC50: 2.2 to 200 µM

## N#Cc1cnc2cc3c(cc2c1Nc1ccc(F)c(Cl)c1)N(C(=O)/C=C/CBr)CCO3
EGFR (human) [24]
  IC50: 1 µM
